We go through 3 compounds from patent US20120165383A1, “INFLAMMATORY EYE DISEASE” (MASSACHUSETTS EYE & EAR INFIRMARY, priority 2004, published 2012).

For data set [1], the system named is TNF-α. The data set can be described thus: Retinal TNF-α levels, ELISA, EIU rats. Type of data set: in vivo, rat. To be noted: for LPS-induced increase of TNF-alpha levels in the retina: 1 mg/kg GA i.p. 24 h before LPS, FIG. 6. Here is the method:
(§1) Materials and Methods: Female Lewis rats received a single intraperitoneal injection of 1 mg/kg GA or vehicle (DMSO). EIU was induced 24 hours later by a footpad injection of 200 mg/kg lipopolysaccharide (LPS).
(§2) Retinal levels of VEGF, TNF-α, and leukocyte total levels of the LPS receptor CD14 were quantified with an ELISA method, whereas membranous CD14 levels were assessed with membrane precipitation and subsequent immunoblotting. For the ELISA, one day after the administration of the LPS rats were euthanized and retinal lysates were prepared on ice in RIPA lysis buffer (1% NP-40, 0.5% deoxycholate (DOC), 1% SDS, 150 mmol/L NaCl, 50 mmol/L Tris-HCl [pH 8.0]) containing sodium fluorid, […], phenylmethylsulfonylfluorid (PMSF), leupeptin and aprotinin. Protein concentration was determined by Bradford assay (Protein Assay, Bio-Rad, Hercules, Calif.). Samples containing the same amount of protein were assayed for their VEGF, TNF-α and CD14 levels with a commercially available kit (R&D systems, CA) as per the instructions of the manufacturer.
(An ELISA detects its analyte on a solid surface through an enzyme-linked reagent.)

For data set [2] the following is noted: Phase I trials in various neoplasias; cited from earlier work.
The subject of data set [3] is VEGF. The data set can be described thus: Retinal VEGF levels, ELISA, EIU rats. In kind it is in vivo, rat. The note with it: for LPS-induced increase of VEGF levels in the retina: 1 mg/kg GA i.p. 24 h before LPS, FIG. 5. As for the experimental part: as §1, §2
Data set [4] deals with membrane CD14. The data set can be described thus: Membranous CD14 levels in leukocytes, membrane precipitation and immunoblotting, EIU rats. In kind it is in vivo, rat. To be noted: 1 mg/kg GA i.p. 24 h before LPS, FIG. 2.
Experimental: Retinal levels of VEGF, TNF-α, and leukocyte total levels of the LPS receptor CD14 were quantified with an ELISA method, whereas membranous CD14 levels were assessed with membrane precipitation and subsequent immunoblotting. […] Protein concentration was determined by Bradford assay (Protein Assay, Bio-Rad, Hercules, Calif.). […]
Neutrophils were isolated from whole blood by density gradient centrifugation with Histopaque® 1083 cell separation media (Sigma, St Louis, Mo.) according to the manufacturer's instructions. […] The preparations contained>85% monocytes as determined by eosin and methylene blue staining (Leukostat Staining System, Fisher Scientific, Pittsburgh, Pa.). […] The samples were cleared by centrifugation (14,000 rpm, 30 min, 40° C.) and assessed for protein concentration. Biotinylated proteins, representing the cell surface proteins, were immunoprecipitated with Streptavidin-agarose for 2 hours at 40° C., electrophoresed in an SDS-PAGE and CD14 levels were detected by Western Blotting as described.
The test system of data set [5] is leukocyte adhesion. The data set can be described thus: Leukocyte adhesion ex vivo, concanavalin A lectin staining of retinal flatmounts, EIU rats. In kind it is in vivo, rat. The note with it: 1 mg/kg GA i.p. 24 h before LPS, evaluated 24 h after LPS, FIGS. 9-11. As for the experimental part: as §1
(§3) Twenty-four hours after the administration of LPS, leukocyte adhesion was evaluated in vitro with quantitative endothelial cell-neutrophil adhesion assays and ex vivo with concanavalin A lectin staining of retinal flatmounts, as follows. After the induction of deep anesthesia in the rat, the chest cavity was opened, and a 14-gauge perfusion cannula was introduced to the left ventricle. The right atrium was opened with a 12-gauge needle to achieve outflow. With the heart providing the motive force, 250 mL/kg PBS was administered from the perfusion cannula to remove erythrocytes and non-adherent leukocytes. […] Lectin staining was followed by 1% bovine serum albumin (BSA)/PBS perfusion for 1 minute, and PBS perfusion alone for 4 minutes, to remove excess concanavalin A. The retinas were flatmounted in a water-based fluorescence anti-fading medium (Fluoromount; Southern Biotechnology, Birmingham, Ala.) and imaged by fluorescence microscopy (Axioplan, FITC filter, 40×; Carl Zeiss, Oberkochen, Germany). […] Leukocyte location was scored as being either arteriolar, venular, or capillary. The total number of adherent leukocytes per retina was counted. […]

The test system of data set [6] is blood-retinal barrier. Nature of the data set: Blood-retinal barrier breakdown by Evans Blue extravasation, EIU rats. Type of data set: in vivo, rat. The note with it: 1 mg/kg GA i.p. 24 h before LPS. As for the experimental part:
as §1
(§4) Leukocyte activation was quantified with a myeloperoxidase (MPO) activity assay and blood-retinal barrier breakdown was assessed by Evans Blue extravasation. Animals were anesthetized and Evans blue dye (Sigma) dissolved in normal saline (30 mg/ml) was injected through the tail vein at a dosage of 45 mg/kg body weight. After the dye had circulated for 120 minutes, the chest cavity was opened and blood samples were obtained from the left ventricle to assess the Evans blue plasma concentration. These blood samples were centrifuged at 16,000 g for 5 minutes. […] The absorbance of Evans blue was measured by spectrophotometry as described below. […] The background-subtracted absorbance was determined by measuring each sample at 620 nm (absorbance maximum for Evans blue in formamide) and 740 nm (absorbance minimum). The concentrations of dye in the extracts and the blood samples were calculated using a standard curve of Evans blue in formamide. Blood-ocular barrier breakdown was calculated using the following equation, with results being expressed in microliters of plasma per gram of retina dry weight times hours of dye circulating time. […]

For data set [7], the system named is HIF-1α. Nature of the data set: Retinal HIF-1α activity, modified ELISA binding assay, EIU rats. The note with it: 1 mg/kg GA i.p. 24 h before LPS, FIG. 3. Type of data set: in vivo, rat. As for the experimental part: as §1
(§5) Retinal activities of NF-κB and HIF-1α were quantified with a modified ELISA method as described in Poulaki et al., Am. J. Pathol. 165(2):457-69 (2004) and Poulaki et al., J. Clin. Invest. 109(6):805-15 (2002). NF-κB activation was analyzed using the Trans-AM NF-κB […] transcription factor assay kit (Active Motif, Carlsbad, Calif.) according to the manufacturer's instructions, as previously described (Mitsiades et al., Proc. Natl. Acad. Sci. USA, 99:14374-14379 (2002); Mitsiades et al., Blood, 99:4525-4530 (2002)). […] Transcription factor binding to the target oligonucleotide was detected by incubation with respective specific primary monoclonal antibodies, visualized by anti-IgG horseradish peroxidase conjugate and developing solution, and quantified at 450 nm with a reference wavelength of 655 nm. Background binding was calculated by adding in selected wells the respective consensus oligonucleotides in excess (20 pmol/well) as soluble competitors that prevented transcription factor binding to the probe immobilized on the plate. […]

For data set [8], the system named is leukocyte adhesion. The data set can be described thus: Quantitative endothelial cell-neutrophil adhesion assay in vitro, endotoxin-induced uveitis (EIU) rats. The note with it: 1 mg/kg GA i.p. 24 h before LPS; evaluated 24 h after LPS; vs DMSO vehicle. In kind it is cell-based, rat. As for the experimental part:
as §1, §3

Data set [9] deals with intercellular adhesion molecule 1 (ICAM-1). The data set can be described thus: Retinal ICAM-1 levels, EIU rats. In kind it is in vivo, rat. To be noted: rats with EIU; FIG. 8. As for the experimental part:
as §1

Data set [10] relates to CD14. Nature of the data set: Leukocyte total levels of the LPS receptor CD14, EIU rats. The note with it: 1 mg/kg GA i.p. 24 h before LPS, FIG. 1. In kind it is in vivo, rat. As for the experimental part: as §1, §2
The subject of data set [11] is NF-κB. Nature of the data set: Retinal NF-κB activity, modified ELISA (Trans-AM), EIU rats. In kind it is in vivo, rat. The note with it: 1 mg/kg GA i.p. 24 h before LPS, FIG. 4. As for the experimental part: as §1, §5
Data set [12] deals with myeloperoxidase (MPO) activity. Nature of the data set: Leukocyte activation, myeloperoxidase (MPO) activity assay, EIU rats. Type of data set: in vivo, rat. To be noted: 1 mg/kg GA i.p. 24 h before LPS, leukocytes from rats with EIU, FIG. 7. Here is the method:
as §1, §4

For data set [13] the following is noted: attributed to instability; cited from earlier work.
Where [14] appears, read: stated for 17AAG in the description, no conditions given.

As for `C=CCNC1=C2C[C@@H](C)C[C@H](OC)[C@H](O)[C@@H](C)/C=C(\C)[C@H](OC(N)=O)[C@@H](OC)/C=C\C=C(/C)C(=O)NC(=CC1=O)C2=O` [17AAG, 17-Allylamino-17-demethoxygeldanamycin], the “expression of TNF-α” value in data set [1] (setting [14]) was “reduces”. Also, in data set [2], the pharmacokinetic profile result is on record as “favorable pharmacokinetic profile”; the side effects entry is “transient and manageable side effects”. Also, the “expression of VEGF” value in data set [3] (setting [14]) is listed as “reduces”.
Consider `COC1=C2C[C@@H](C)C[C@H](OC)[C@H](O)[C@@H](C)/C=C(\C)[C@H](OC(N)=O)[C@@H](OC)/C=C\C=C(/C)C(=O)NC(=CC1=O)C2=O` [Geldanamycin], for which the “membrane CD14 levels in leukocytes” value in data set [4] was “decreases”; in data set [4] (listed as GA), “significantly decreased”. Also, the “LPS-induced increase in leukocyte adhesion ex vivo” value in data set [5] is “significantly suppressed”. Also, the “vascular leakage (blood-retinal barrier breakdown)” value is on record as “significantly suppressed” in [6] (FIG. 12) and “decreases” in data set [6] (FIG. 12, listed as geldanamycin). Further, the “LPS-induced increase of HIF-1α activity in the retina” value in data set [7] is listed as “significantly suppressed”; in data set [7] (listed as geldanamycin), “decreases”. Also, the “LPS-induced increase in leukocyte adhesion in vitro” value in data set [8] is given as “significantly suppressed”. For the same compound, the “LPS-induced upregulation of retinal ICAM-1 levels” value in data set [9] was “decreases”. Further, the entries for the “LPS-induced increase in total CD14 levels in the leukocytes” value in [10] and in data set [10] (listed as GA) were “does not affect” and “did not reduce”, respectively. Moreover, the figures for the “LPS-induced increase of TNF-alpha levels in the retina” value in [1] and in [1] (listed as geldanamycin) were “significantly suppressed” and “decreases”, respectively. Moreover, the results for the “LPS-induced increase of NF-κB activity in the retina” value in [11] and in data set [11] (listed as geldanamycin) were “significantly suppressed” and “decreases”, respectively. For the same compound, the MPO activity result in data set [12] is listed as “significantly suppressed”; in [12] (listed as geldanamycin), “reduces”. Moreover, the “LPS-induced increase of VEGF levels in the retina” value is recorded as “significantly suppressed” in data set [3] and “decreases” in data set [3] (listed as geldanamycin).
Take `C[C@@H]1C[C@H]2O[C@@H]2/C=C\C=C\C(=O)Cc2c(Cl)c(O)cc(O)c2C(=O)O1` [radicicol, Radicicol]: the activity in animals result in data set [13] was “little or no activity”.
